Results reported in patent US20240270722A1, “POLO LIKE KINASE 4 INHIBITORS” (ORIC Pharmaceuticals, Inc., priority 2021, published 2024).

Experiments:
[1] = target: T1, human recombinant Aurora B (Homo sapiens, UniProt Q96GD4); experiment: Aurora B Kinase Biochemical Assay (ADP-Glo); conditions: selectivity ratio Aurora B vs PLK4
T1 construct: purchased ThermoFisher PR9210B
Protocol: Activity of human recombinant Aurora B (ThermoFisher, cat #PR9210B) was measured by quantification of adenosine diphosphate (ADP) using the ADP-Glo Kinase Assay Kit (Promega, cat #V9102). […] 5 μL of 20 nM Aurora B in assay buffer (50 mM HEPES, pH 7.5, 0.01% Brij-35, 0.01% BSA, 10 mM MgCl2, 1 mM EGTA, 1 mM DTT) was added to the plates. Test compounds and Aurora B were incubated for 15 minutes at room temperature (RT). […] Reactions were stopped and the remaining ATP depleted by adding 10 uL of ADP-Glo reagent (Promega, cat #V912B) and incubating for 40 minutes at RT. The simultaneous conversion of the remaining ADP to ATP and measurement of the newly synthesized ATP was achieved by addition of 20 μL Kinase Detection reagent (Promega, cat #V914B), incubation for 30 min at RT, and luminescence detection using the EnVision plate reader (PerkinElmer). […] The IC50 values reported in Table 2 were determined using four parameter non-linear regression curve fit.

[2] = target: T2, human recombinant Aurora A (Homo sapiens, UniProt O14965); experiment: Aurora A Kinase Biochemical Assay (ADP-Glo); conditions: selectivity ratio Aurora A vs PLK4
T2 construct: purchased ThermoFisher PR5935A
T2 sequence (O14965 1-403): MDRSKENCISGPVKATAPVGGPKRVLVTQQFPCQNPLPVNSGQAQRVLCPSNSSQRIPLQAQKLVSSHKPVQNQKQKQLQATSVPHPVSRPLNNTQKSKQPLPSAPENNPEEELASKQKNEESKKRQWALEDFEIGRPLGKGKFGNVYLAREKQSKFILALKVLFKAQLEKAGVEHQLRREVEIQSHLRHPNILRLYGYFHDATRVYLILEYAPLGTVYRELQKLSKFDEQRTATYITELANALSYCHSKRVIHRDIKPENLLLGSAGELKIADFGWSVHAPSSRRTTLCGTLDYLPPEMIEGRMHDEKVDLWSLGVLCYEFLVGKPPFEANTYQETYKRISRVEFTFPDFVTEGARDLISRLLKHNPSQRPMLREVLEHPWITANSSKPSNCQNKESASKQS
Protocol: Activity of human recombinant Aurora A (ThermoFisher, cat #PR5935A) was measured by quantification of adenosine diphosphate (ADP) using the ADP-Glo Kinase Assay Kit (Promega, cat #V9102). […] 5 μL of 5.0 nM Aurora A in assay buffer (50 mM HEPES, pH 7.5, 0.01% Brij-35, 0.01% BSA, 10 mM MgCl2, 1 mM EGTA, 1 mM DTT) was added to the plates. Test compounds and Aurora A were incubated for 15 minutes at room temperature (RT). […] Reactions were stopped and the remaining ATP depleted by adding 10 uL of ADP-Glo reagent (Promega, cat #V912B) and incubating for 40 minutes at RT. The simultaneous conversion of the remaining ADP to ATP and measurement of the newly synthesized ATP was achieved by addition of 20 μL Kinase Detection reagent (Promega, cat #V914B), incubation for 30 min at RT, and luminescence detection using the EnVision plate reader (PerkinElmer). […] The IC50 values reported in Table 2 were determined using four parameter non-linear regression curve fit.

[3] = target: T3, human recombinant PLK4 (Homo sapiens, UniProt O00444); experiment: PLK4 Biochemical Assay (ADP-Glo)
T3 construct: purchased ThermoFisher 4PV6396
T3 sequence (O00444 1-970): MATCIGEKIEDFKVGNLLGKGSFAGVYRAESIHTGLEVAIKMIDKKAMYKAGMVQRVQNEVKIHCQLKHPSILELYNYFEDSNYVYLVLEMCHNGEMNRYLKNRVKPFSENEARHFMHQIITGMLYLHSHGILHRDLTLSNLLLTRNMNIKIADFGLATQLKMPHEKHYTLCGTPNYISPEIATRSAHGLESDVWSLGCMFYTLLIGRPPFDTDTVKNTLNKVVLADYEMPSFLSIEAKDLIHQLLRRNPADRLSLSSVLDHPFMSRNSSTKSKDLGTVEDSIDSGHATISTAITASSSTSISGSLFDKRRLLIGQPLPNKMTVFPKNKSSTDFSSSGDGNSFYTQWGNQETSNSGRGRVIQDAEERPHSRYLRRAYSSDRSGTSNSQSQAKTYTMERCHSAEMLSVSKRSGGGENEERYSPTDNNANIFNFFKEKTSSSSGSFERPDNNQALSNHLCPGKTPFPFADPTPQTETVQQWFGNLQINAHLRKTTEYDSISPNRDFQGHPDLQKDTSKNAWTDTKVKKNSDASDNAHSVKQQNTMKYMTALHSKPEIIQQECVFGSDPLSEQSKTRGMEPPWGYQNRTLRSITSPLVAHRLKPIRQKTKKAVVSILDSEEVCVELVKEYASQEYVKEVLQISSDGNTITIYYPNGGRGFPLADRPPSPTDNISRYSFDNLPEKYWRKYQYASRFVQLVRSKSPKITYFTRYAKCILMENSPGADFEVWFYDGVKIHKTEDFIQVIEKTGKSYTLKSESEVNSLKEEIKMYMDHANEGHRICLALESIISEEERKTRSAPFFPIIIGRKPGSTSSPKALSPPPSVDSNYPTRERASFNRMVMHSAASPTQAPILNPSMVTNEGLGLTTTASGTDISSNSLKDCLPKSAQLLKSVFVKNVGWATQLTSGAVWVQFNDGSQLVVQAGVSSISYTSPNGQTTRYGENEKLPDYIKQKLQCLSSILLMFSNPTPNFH
Protocol: 5 μL of 1.0 nM PLK4 protein in assay buffer (50 mM HEPES, pH 7.5, 0.01% Brij-35, 0.01% BSA, 10 mM MgCl2, 1 mM EGTA, 1 mM DTT) was added to the plates. Test compounds and PLK4 were incubated for 15 minutes at room temperature (RT). […] The IC50 values reported in Table 2 were determined using four parameter non-linear regression curve fit.

T1 sequence (Q96GD4 whole entry): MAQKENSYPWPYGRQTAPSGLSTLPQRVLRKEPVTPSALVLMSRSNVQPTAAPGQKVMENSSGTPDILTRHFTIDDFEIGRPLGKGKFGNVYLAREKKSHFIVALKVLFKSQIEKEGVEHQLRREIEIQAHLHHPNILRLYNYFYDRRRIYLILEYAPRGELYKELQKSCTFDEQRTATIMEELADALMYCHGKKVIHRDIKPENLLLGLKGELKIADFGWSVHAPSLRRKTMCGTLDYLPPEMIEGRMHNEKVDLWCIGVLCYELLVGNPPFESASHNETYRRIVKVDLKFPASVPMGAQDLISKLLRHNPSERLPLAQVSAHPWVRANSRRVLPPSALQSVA

[Aurora B IC50 (nM)]/[PLK4 IC50 (nM)] [1] | [Aurora A IC50 (nM)]/[PLK4 IC50 (nM)] [2] | IC50 [3] [nM] | Structure (SMILES)
280 |  |  | COc1ccc2c(c1)[C@]1(C[C@H]1c1ccc3c(Nc4cc(OC)c(S(N)(=O)=O)cc4OC)n[nH]c3c1)C(=O)N2 [Example 212, 2,5-Dimethoxy-4-({6-[(1R,2S)-5′-methoxy-2′-oxo-1′,2′-dihydrospiro[cyclopropane-1,3′-indol]-2-yl]-1H-indazol-3-yl}amino)benzene-1-sulfonamide]
19.96 | 893.3126 |  | COc1ccc2c(c1)[C@]1(C[C@H]1c1ccc3c(Nc4nccc5c4OC[C@H]5CO)n[nH]c3c1)C(=O)N2 (single isomer, unassigned) [Example 34]
230 |  |  | CCOc1cc(S(=O)(=O)NC)cnc1Nc1n[nH]c2cc([C@@H]3C[C@@]34C(=O)Nc3ccc(OC)cc34)ccc12 [Example 275, 5-ethoxy-6-({6-[(1R,2S)-5′-methoxy-2′-oxo-1′,2′-dihydrospiro[cyclopropane-1,3′-indol]-2-yl]-1H-indazol-3-yl}amino)-N-methylpyridine-3-sulfonamide]
72 | 62 |  | COc1cnc(C)nc1Nc1n[nH]c2cc([C@@H]3C[C@@]34C(=O)Nc3ccc(C(F)(F)F)cc34)ccc12 [Example 137, (1R,2S)-2-{3-[(5-methoxy-2-methylpyrimidin-4-yl)amino]-1H-indazol-6-yl}-5′-(trifluoromethyl)spiro[cyclopropane-1,3′-indol]-2′(1′H)-one]
8.474 | 355.9465 |  | COc1ccc2c(c1)[C@]1(C[C@H]1c1ccc3c(Nc4nccc5c4OC[C@@H]5CO)n[nH]c3c1)C(=O)N2 (single isomer, unassigned) [Example 33]
381.4972 | 1884.6028 | 6.12 | COc1ccc2c(c1)[C@]1(C[C@H]1c1ccc3c(Nc4ncc(P(C)(C)=O)cc4OC)n[nH]c3c1)C(=O)N2 [Example 225, (1R,2S)-2-(3-{[5-(dimethylphosphoryl)-3-methoxypyridin-2-yl]amino}-1H-indazol-6-yl)-5′-methoxyspiro[cyclopropane-1,3′-indol]-2′(1′H)-one]
9.6 | 7.4 |  | COc1cnc(C)nc1Nc1n[nH]c2cc([C@@H]3C[C@]34C(=O)Nc3ccc(OC(F)(F)F)cc34)ccc12 [Example 139, (1S,2S)-2-{3-[(5-methoxy-2-methylpyrimidin-4-yl)amino]-1H-indazol-6-yl}-5′-(trifluoromethoxy)spiro[cyclopropane-1,3′-indol]-2′(1′H)-one]
6.986 | 210.5378 |  | COc1ccc2c(c1)[C@]1(C[C@H]1c1ccc3c(Nc4nn(C)cc4OC)n[nH]c3c1)C(=O)N2.O=C(O)C(F)(F)F [Example 79, (1R,2S)-5′-methoxy-2-{3-[(4-methoxy-1-methyl-1H-pyrazol-3-yl)amino]-1H-indazol-6-yl}spiro[cyclopropane-1,3′-indol]-2′(1′H)-one]
 | 50000 |  | COc1ccc2c(c1)[C@]1(C[C@H]1c1ccc3c(Nc4ncnc(N5CCOCC5)c4OC(F)F)n[nH]c3c1)C(=O)N2 [Example 109, (1R,2S)-2-(3-{[5-(difluoromethoxy)-6-(morpholin-4-yl)pyrimidin-4-yl]amino}-1H-indazol-6-yl)-5′-methoxyspiro[cyclopropane-1,3′-indol]-2′(1′H)-one]
36 | 70 |  | COc1cnc(C)nc1Nc1n[nH]c2cc([C@@H]3C[C@@]34C(=O)Nc3ccc(OC(F)(F)F)cc34)ccc12 [Example 138, (1R,2S)-2-{3-[(5-methoxy-2-methylpyrimidin-4-yl)amino]-1H-indazol-6-yl}-5′-(trifluoromethoxy)spiro[cyclopropane-1,3′-indol]-2′(1′H)-one]
